Tested on: HCT116 MTAP-deleted cell lines
Test: Cell viability assay (CellTiter-Glo, 7 days), HCT116 MTAP-deleted
Type: cell-based
Conditions: Homo sapiens, HCT-116; cell viability assay, HCT116 MTAP-deleted; class symbols; read-out: CC50
Procedure, shortened: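 PRMT5 inhibitors were serially diluted in DMSO and acoustically spotted as dose-response series into plates before cell seeding. Cells were grown with compound for 7 days at 37 °C, 5% CO2, 90% humidity, then viability was read by CellTiter-Glo luminescence and reported as CC50.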

## C[C@@H]1C[C@@H]2Oc3cc(OC(F)(F)F)ccc3[C@@H]2N(C(=O)c2cc3c(cn2)nc(N)c2cncn23)C1 [Ff-507, (4-aminoimidazo[1,5-a]pyrido[3,4-e]pyrazin-8-yl)((3R,4aS,9bS)-3-methyl-7-(trifluoromethoxy)-3,4,4a,9b-tetrahydrobenzofuro[3,2-b]pyridin-1(2H)-yl)methanone]
  CC50: < 100 nM

## CN(C(=O)c1cc2c(cc1Cl)nc(N)c1cncn12)[C@@H]1COc2cc(C(C)(F)F)ccc21 [Ff-508, (S)-4-amino-7-chloro-N-(6-(1,1-difluoroethyl)-2,3-dihydrobenzofuran-3-yl)-N-methylimidazo[1,5-a]quinoxaline-8-carboxamide]
  CC50: < 100 nM

## Cc1ncc2c(N)nc3cnc(C(=O)N(C)[C@@H]4COc5cc(C(F)(F)F)ccc54)cc3n12 [Ff-509, (S)-4-amino-N,1-dimethyl-N-(6-(trifluoromethyl)-2,3-dihydrobenzofuran-3-yl)imidazo[1,5-a]pyrido[3,4-e]pyrazine-8-carboxamide]
  CC50: < 100 nM

## Nc1nc2ccc(C(=O)N3CC[C@H]4C[C@@H]3c3ccc(C(F)(F)F)cc3O4)cc2n2cncc12 [Ff-510, (4-aminoimidazo[1,5-a]quinoxalin-8-yl)((2S,6R)-9-(trifluoromethyl)-3,4-dihydro-2H-2,6-methanobenzo[b][1,5]oxazocin-5(6H)-yl)methanone]
  CC50: < 100 nM

## Nc1nc2cc(F)c(C(=O)N3CC4CCC(O4)C3c3ccc(C(F)(F)F)cn3)cc2n2cncc12 (stereo not shown) [Ff-511, (4-amino-7-fluoroimidazo[1,5-a]quinoxalin-8-yl)(2-(5-(trifluoromethyl)pyridin-2-yl)-8-oxa-3-azabicyclo[3.2.1]octan-3-yl)methanone]
  CC50: 100 to 1000 nM

## Nc1nc2cc(F)c(C(=O)N3CC4CCC(C4)C3c3ccc(C(F)(F)F)cn3)cc2n2cncc12 (stereo not shown) [Ff-512, (4-amino-7-fluoroimidazo[1,5-a]quinoxalin-8-yl)(2-(5-(trifluoromethyl)pyridin-2-yl)-3-azabicyclo[3.2.1]octan-3-yl)methanone]
  CC50: 100 to 1000 nM

## CC1(C)CN(C(=O)c2cc3c(cc2F)nc(N)c2cncn23)C(c2ccc(C(F)(F)F)cn2)CO1 (stereo not shown) [Ff-513, (4-amino-7-fluoroimidazo[1,5-a]quinoxalin-8-yl)(2,2-dimethyl-5-(5-(trifluoromethyl)pyridin-2-yl)morpholino)methanone]
  CC50: < 100 nM

## CN(C(=O)c1cc2c(cc1F)nc(N)c1cncn12)[C@@H]1COc2cc(C#CC3(C)CC3)ccc21 [Ff-514, (S)-4-amino-7-fluoro-N-methyl-N-(6-((1-methylcyclopropyl)ethynyl)-2,3-dihydrobenzofuran-3-yl)imidazo[1,5-a]quinoxaline-8-carboxamide]
  CC50: 100 to 1000 nM

## CN(C(=O)c1cc2c(cc1F)nc(N)c1cncn12)[C@@H]1COc2cc(C#CC(F)(F)F)ccc21 [Ff-515, (S)-4-amino-7-fluoro-N-methyl-N-(6-(3,3,3-trifluoroprop-1-yn-1-yl)-2,3-dihydrobenzofuran-3-yl)imidazo[1,5-a]quinoxaline-8-carboxamide]
  CC50: 100 to 1000 nM

## COC1(C#Cc2ccc3c(c2)OC[C@H]3N(C)C(=O)c2cc3c(cc2F)nc(N)c2cncn23)CCC1 [Ff-517, (S)-4-amino-7-fluoro-N-(6-((1-methoxycyclobutyl)ethynyl)-2,3-dihydrobenzofuran-3-yl)-N-methylimidazo[1,5-a]quinoxaline-8-carboxamide]
  CC50: 100 to 1000 nM

## CN(C(=O)c1ccc2nc(N)c3cncn3c2c1)[C@@H]1COc2cc(C#CC3(C)COC3)ccc21 [Ff-518, (S)-4-amino-N-methyl-N-(6-((3-methyloxetan-3-yl)ethynyl)-2,3-dihydrobenzofuran-3-yl)imidazo[1,5-a]quinoxaline-8-carboxamide]
  CC50: < 100 nM

## COC1(C#Cc2ccc3c(c2)OC[C@H]3N(C)C(=O)c2ccc3nc(N)c4cncn4c3c2)CCC1 [Ff-519, (S)-4-amino-N-(6-((1-methoxycyclobutyl)ethynyl)-2,3-dihydrobenzofuran-3-yl)-N-methylimidazo[1,5-a]quinoxaline-8-carboxamide]
  CC50: 100 to 1000 nM

## CN(C(=O)c1ccc2nc(N)c3cncn3c2c1)[C@@H]1COc2cc(C#CC3(CF)CC3)ccc21 [Ff-520, (S)-4-amino-N-(6-((1-(fluoromethyl)cyclopropyl)ethynyl)-2,3-dihydrobenzofuran-3-yl)-N-methylimidazo[1,5-a]quinoxaline-8-carboxamide]
  CC50: 100 to 1000 nM

## CN(C(=O)c1ccc2nc(N)c3cncn3c2c1)[C@@H]1COc2cc(C#CC3(C(F)F)CC3)ccc21 [Ff-521, (S)-4-amino-N-(6-((1-(difluoromethyl)cyclopropyl)ethynyl)-2,3-dihydrobenzofuran-3-yl)-N-methylimidazo[1,5-a]quinoxaline-8-carboxamide]
  CC50: 100 to 1000 nM

## CN(C(=O)c1cc2c(cc1F)nc(N)c1cncn12)[C@@H]1COc2cc(C#CC3(C(F)(F)F)CC3)ccc21 [Ff-522, (S)-4-amino-7-fluoro-N-methyl-N-(6-((1-(trifluoromethyl)cyclopropyl)ethynyl)-2,3-dihydrobenzofuran-3-yl)imidazo[1,5-a]quinoxaline-8-carboxamide]
  CC50: 100 to 1000 nM

## CN(C(=O)c1cc2c(cc1F)nc(N)c1cncn12)[C@@H]1COc2cc(C#CC34CCC(CC3)OC4)ccc21 [Ff-523, (S)—N-(6-((2-oxabicyclo[2.2.2]octan-4-yl)ethynyl)-2,3-dihydrobenzofuran-3-yl)-4-amino-7-fluoro-N-methylimidazo[1,5-a]quinoxaline-8-carboxamide]
  CC50: 100 to 1000 nM

## CN(C(=O)c1cc2c(cc1F)nc(N)c1cncn12)[C@@H]1COc2cc(C#CC3C4COCC34)ccc21 (stereo partly drawn) [Ff-524, N-((3S)-6-((3-oxabicyclo[3.1.0]hexan-6-yl)ethynyl)-2,3-dihydrobenzofuran-3-yl)-4-amino-7-fluoro-N-methylimidazo[1,5-a]quinoxaline-8-carboxamide]
  CC50: < 100 nM

## CN(C(=O)c1cc2c(cc1F)nc(N)c1cncn12)[C@@H]1COc2cc(C#CC3CC(F)(F)C3)ccc21 [Ff-525, (S)-4-amino-N-(6-((3,3-difluorocyclobutyl)ethynyl)-2,3-dihydrobenzofuran-3-yl)-7-fluoro-N-methylimidazo[1,5-a]quinoxaline-8-carboxamide]
  CC50: 100 to 1000 nM

## CN(C(=O)c1ccc2nc(N)c3cncn3c2c1)[C@@H]1COc2cc(C#CC(C)(C)S(C)(=O)=O)ccc21 [Ff-526, (S)-4-amino-N-methyl-N-(6-(3-methyl-3-(methylsulfonyl)but-1-yn-1-yl)-2,3-dihydrobenzofuran-3-yl)imidazo[1,5-a]quinoxaline-8-carboxamide]
  CC50: 100 to 1000 nM

## CN(C(=O)c1ccc2nc(N)c3cncn3c2c1)[C@@H]1COc2cc(C#CC3(O)COC3)ccc21 [Ff-527, (S)-4-amino-N-(6-((3-hydroxyoxetan-3-yl)ethynyl)-2,3-dihydrobenzofuran-3-yl)-N-methylimidazo[1,5-a]quinoxaline-8-carboxamide]
  CC50: 100 to 1000 nM

## CN(C(=O)c1ccc2nc(N)c3cncn3c2c1)[C@@H]1COc2cc(C#CC34CCC(CC3)O4)ccc21 [Ff-528, (S)—N-(6-((7-oxabicyclo[2.2.1]heptan-1-yl)ethynyl)-2,3-dihydrobenzofuran-3-yl)-4-amino-N-methylimidazo[1,5-a]quinoxaline-8-carboxamide]
  CC50: 100 to 1000 nM

## CC(=O)N1CC(C#Cc2ccc3c(c2)OC[C@H]3N(C)C(=O)c2ccc3nc(N)c4cncn4c3c2)C1 [Ff-529]
  CC50: 100 to 1000 nM

From patent publication US12448388B2, “PRMT5 inhibitors and uses thereof” (Gilead Sciences, Inc., priority 2023, dated 2025)
